Values joined by “and” are separate entries in the source; they are usually repeats but may differ in a detail not shown here. Equal entries are not always repeated. Where two headings read alike, the source gives them in different places.
Experiments:
GPR139 [1] = target: T1, GPR139 (Homo sapiens, UniProt Q6DWJ6); assay: GPR139 agonist potency, data from Shi et al. (Lundbeck series); format: cell-based
T1 sequence (Q6DWJ6 1-353): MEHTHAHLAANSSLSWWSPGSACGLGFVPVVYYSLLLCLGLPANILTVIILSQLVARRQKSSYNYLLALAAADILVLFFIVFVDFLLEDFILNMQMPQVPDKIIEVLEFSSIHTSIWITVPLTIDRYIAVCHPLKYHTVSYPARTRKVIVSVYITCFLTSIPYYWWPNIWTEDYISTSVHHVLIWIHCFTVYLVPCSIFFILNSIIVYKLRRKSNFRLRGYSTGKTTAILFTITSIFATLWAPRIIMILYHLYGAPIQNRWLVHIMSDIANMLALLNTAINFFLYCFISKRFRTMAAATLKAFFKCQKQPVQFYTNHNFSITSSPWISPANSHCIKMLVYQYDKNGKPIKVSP

GPR139 [2] = target: T1, GPR139; parameters: method as in ref 11 (Shi et al.); conditions: ref 11 (Shi et al.), cited from earlier work; for EC50: GPR139 agonist potency
[3] = in vivo; cited from earlier work
GPR139 [4] = target: T1, GPR139; parameters: method as in ref 15 (Hitchcock et al.); conditions: ref 15 (Hitchcock et al.); cited from earlier work
GPR139 [5] = target: T1, GPR139; assay: IP-One HTRF assay measuring Gq activation in CHO-139; format: cell-based; conditions: for EC50: IP-One HTRF assay, CHO-139, 20 mM LiCl
Protocol: (§1) Figure 3 IP-One HTRF® assay measuring Gq activation. Concentration-response curves of 1a, 7c (racemic), L-Trp, L-Phe, DL43, DL126, DL24, DL22, DL132 and DL130 on (A) CHO-139 and (B) CHO-M1 in the IP-One assay (final conc of LiCl = 20 mM). The dotted line represent the [IP1] response from (A) 10 μM 1a and (B) 1 μM carbachol, which is an agonist for the muscarinic acethylcholine receptor M1 that activates the Gq coupled pathway. The graphs are means ± SEM based on three independent experiments performed in triplicates.
(§2) The IP-One assay was performed as described in the work by Thomsen et al.[28], with few modifications. Breifly, CHO-139 and CHO-M1 were detached and re-suspended to a concentration of 10 million cells/mL. 5 μL 2x concentrated compound (+40 mM LiCl) and 5 μL cell suspension (50,000 cells/well) was mixed. The plate was sealed and incubated at 37 °C for 1 hour. Next, 10 μL detection reagents (lysis buffer containing 2.5% Eu^3+-anti-IP1 antibody and 2.5% IP1-d2) was added and the plate was incubated for 1 hour at room temperature. The plate was read on an Envision (PerkinElmer, Waltham, MA, USA). The time resolved-fluorescence resonance energy transfer (TR-FRET) 665 nm/615 nm ratio, which is inversely proportional to the inositol monophosphate (IP1) accumulation, was used to determine the concentration of the IP1 response.

M1 receptor [6] = target: T2, M1 receptor (Homo sapiens, UniProt P11229); assay: IP-One HTRF assay in CHO-M1 (control); format: cell-based
T2 construct: host or cells: CHO-k1
T2 sequence (P11229 1-460): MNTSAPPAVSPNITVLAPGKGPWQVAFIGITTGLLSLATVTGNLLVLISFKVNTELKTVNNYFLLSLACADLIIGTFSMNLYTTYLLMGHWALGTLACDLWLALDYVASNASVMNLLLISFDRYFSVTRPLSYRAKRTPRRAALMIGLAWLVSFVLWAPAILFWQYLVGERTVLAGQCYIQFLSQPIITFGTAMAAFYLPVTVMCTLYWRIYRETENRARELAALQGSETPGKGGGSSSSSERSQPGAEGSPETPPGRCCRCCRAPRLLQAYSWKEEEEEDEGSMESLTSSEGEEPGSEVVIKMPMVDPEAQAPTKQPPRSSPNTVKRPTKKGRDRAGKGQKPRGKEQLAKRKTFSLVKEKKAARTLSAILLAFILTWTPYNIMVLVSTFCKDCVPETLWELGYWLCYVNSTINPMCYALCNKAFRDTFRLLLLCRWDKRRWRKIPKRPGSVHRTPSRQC
Protocol: as §1, §2

GPR139 [7] = target: T1, GPR139; assay: cAMP dynamic 2 assay measuring Gs activation in CHO-139; format: cell-based
Protocol: (§3) The cAMP assay was performed as described in the work by Thomsen et al.[28] with few modifications. Breifly, CHO-139 and CHO-M1 was detached and resuspended to a concentration of 1 million cells/mL. 5 μL 2x concentrated compound (for Gs: +100 μM IBMX and for Gi: +100 μM IBMX +10 μM forskolin (Fsk)) and 5 μL cell suspension (5,000 cells/well) was mixed. The plate was sealed and incubated at room temperature for 30 min. Next, 10 μL detection reagents (lysis buffer containing 2.5% Eu^3+-anti-cAMP antibody and 2.5% cAMP-d2) was added and the plate was incubated for 1 hour at room temperature. The plate was read on an Envision (PerkinElmer, Waltham, MA, USA). The TR-FRET 665 nm/615 nm ratio, which is inversely proportional with the cAMP production, was used to determination the concentration of the cAMP response. […]
(§4) Supplementary Figure 1. cAMP dynamic 2 assay measuring Gs activation. 5,000 cells/well of CHO-139 (pink bars) or CHO-M1 (blue bars) cells are
(§5) incubated with the indicated compounds for 30 min at room temperature in the presence of 50 µM IBMX. 5 µM and 10 µM forskolin (Fsk) serves as positive
(§6) controls. The responses are one representative out of at two independent experiments performed in triplicates. Data points are means ± SD. […]
(§7) Data points are means ± SD.

M1 receptor [8] = target: T2, M1 receptor; assay: cAMP dynamic 2 assay measuring Gs activation in CHO-M1 (control); format: cell-based
Protocol: as §3, §4, §5, §6, §7

GPR139 [9] = target: T1, GPR139; assay: cAMP dynamic 2 assay measuring Gi activation (forskolin) in CHO-139; format: cell-based; conditions: for Inhibition of the cAMP response induced by 5 μM forskolin (Gi), in words: CHO-139
Protocol: as §3
(§8) Supplementary Figure 2. cAMP dynamic 2 assay measuring Gi activation. 5,000 cells/well of CHO-139 (pink bars) or CHO-M1 (blue bars) cells are
(§9) incubated with the indicated compounds for 30 min at room temperature in the presence of 50 µM IBMX and 5 uM Fsk (expect “buffer (-Fsk) where only 50
(§10) µM IBMX is present). The straight line indicate the level of cAMP upon activation with 5 uM Fsk, and the grey area ±10% of the response. The responses are
(§11) one representative out of at two independent experiments performed in triplicates. Data points are means ± SD.

GPR139 [10] = target: T1, GPR139; parameters: method as in PMID 24826842; conditions: GPR139 activation; cited from earlier work
GPR139 [11] = target: T1, GPR139; parameters: method as in ref 6, 13 (Liu et al.); conditions: [35S]GTPγS binding, membranes from COS7 cells; 13 (Liu et al.); cited from earlier work
GPR139 [12] = target: T1, GPR139; parameters: method as in ref 6, 13 (Liu et al.); conditions: concentration-dependent calcium response in HEK293 cells; 13 (Liu et al.); cited from earlier work
GPR139 [13] = target: T1, GPR139; parameters: method as in ref 6, 13 (Liu et al.); conditions: calcium mobilization in HEK293; 13 (Liu et al.); cited from earlier work
M1 receptor [14] = target: T2, M1 receptor; assay: cAMP dynamic 2 assay measuring Gi activation (forskolin) in CHO-M1 (control); format: cell-based; conditions: CHO-M1, high concentrations; unspecific response
Protocol: as §3, §8, §9, §10, §11

GPR139 [15] = target: T1, GPR139; assay: GPR139 agonist potency, data from Dvorak et al. (Janssen R&D series); format: cell-based
GPR139 [16] = target: T1, GPR139; parameters: method as in ref 13, 14 (Dvorak et al.); conditions: relative to L-Trp; 14 (Dvorak et al.); cited from earlier work
[17] = in vivo; cited from earlier work; remark: listed apart in the source
[18] = not told; cited from earlier work

| SMILES | fold reduction of potency vs. 1a (GPR139 [1]) | EC50 (GPR139 [2]) [µM] | Emax (GPR139 [2]) [%] | EC50 (GPR139 [5]) [µM] | IP1 response in CHO-M1 cells (M1 receptor [6]) | Gs response (cAMP) (GPR139 [7]) | Gs response (cAMP) (M1 receptor [8]) | Inhibition of the cAMP response induced by 5 μM forskolin (Gi), in words (GPR139 [9]) | also measured |
| --- | --- | --- | --- | --- | --- | --- | --- | --- | --- |
| COc1cc(OC)cc(C(=O)NNC(=O)Cc2cccc3ccccc23)c1 [1s] | 2 fold and ~ 2.4 fold | 0.088 | 95 |  |  |  |  |  | brain exposure [3]: failed to increase brain exposure due to low plasma levels |
| COc1ccc(C(C)NC(=O)Cn2nnc3cc(C)ccc3c2=O)cc1 (centres unmarked) [compound 35] |  |  |  |  |  |  |  |  | EC50 (GPR139 [4]): 0.042 µM |
| N[C@@H](Cc1ccccc1)C(=O)O [L-Phe, L-Phenylalanine] |  |  |  | 4450 | no response is seen in CHO-M1 cells | None of the tested compounds induced Gs response | None of the tested compounds induced Gs response | none of the tested compounds were able to inhibit the cAMP response | EC50 (GPR139 [10]): 320 µM; EC50 (GPR139 [11]): 31 µM; EC50 (GPR139 [12]): 60 µM; EC50 (GPR139 [13]): 411 µM |
| N[C@@H](Cc1c[nH]c2ccccc12)C(=O)O [L-Trp, L-Tryptophan] |  |  |  | ~8500 | no response is seen in CHO-M1 cells | None of the tested compounds induced Gs response | None of the tested compounds induced Gs response |  | agonist type (GPR139 [5]; IP-One assay, compared to compound 1a): super-agonists; Inhibition of the 5 μM forskolin induced cAMP response (GPR139 [9]; CHO-139, high concentrations): more than 10%; Inhibition of the 5 μM forskolin induced cAMP response (M1 receptor [14]): more than 10%; EC50 (GPR139 [10]): 220 µM; EC50 (GPR139 [11]): 26 µM; EC50 (GPR139 [12]): 49 µM; EC50 (GPR139 [13]): 287 µM |
| COc1cccc(C(=O)NNC(=O)Nc2cccc3ccccc23)c1 [1f] | ~ 26 fold | 1 | 100 |  |  |  |  |  |  |
| COc1ccc(C(C)NC(=O)Cn2nnc3cc(OC)ccc3c2=O)cc1 (centres unmarked) [compound 37] |  |  |  |  |  |  |  |  | EC50 (GPR139 [4]): 0.037 µM |
| COc1cc(OC)cc(C(=O)NNC(=O)Nc2cccc3ccccc23)c1 [1a] |  |  | 100 | 1.05 | no response is seen in CHO-M1 cells | None of the tested compounds induced Gs response | None of the tested compounds induced Gs response | none of the tested compounds were able to inhibit the cAMP response |  |
| COc1ccccc1C(=O)NNC(=O)Nc1cccc2ccccc12 [1c] | ~ 16 fold | 0.62 | 79 |  |  |  |  |  |  |
| C[C@H](NC(=O)CNC(=O)c1ccccc1Cl)c1ccccc1 [7b] |  |  |  |  |  |  |  |  | fold reduction of potency vs. 7c (GPR139 [15]): ~ 3 fold; Emax (GPR139 [16]): 120% |
| C[C@H](NC(=O)CNC(=O)c1cccc(Cl)c1)c1ccccc1 (racemic) [7c] |  |  |  |  | no response is seen in CHO-M1 cells | None of the tested compounds induced Gs response | None of the tested compounds induced Gs response | none of the tested compounds were able to inhibit the cAMP response | Emax (GPR139 [16]): 138%; brain to plasma ratio [17]: 1.2; efflux potential [18]: no efflux potential |

— PMC5103216, “Novel Agonist Bioisosteres and Common Structure-Activity Relationships for The Orphan G Protein-Coupled Receptor GPR139” (Scientific Reports, 2016)
